# Reference: US6005099A, “Glucosamine disaccharides, method for their preparation, pharmaceutical composition comprising same, and their use” (priority 1993, dated 1999)
# Entries after “also recorded” stand apart in the source; their conditions may differ. Where a name gives a salt, the structure may show the parent alone.
# Key:
# protease in LAL [1] = experiment: Endotoxicity, chromogenic LAL test with 0.1 mg/ml bovine serum albumin; type: biochemical, Limulus polyphemus; conditions: n=4 or 6
# Description: (§1) The endotoxicity was also measured in the chromogenic test, in which the activation of a protease in LAL by LPS was measured using a chromogen (Ac-Ile-Glu-Ala-Arg-pNA; Bio Whittaker Kit No. 50-650U). The colour formation (liberation of pNA (p-nitroaniline)) was measured at 405 nm.
# (§2) Samples were pre-incubated at 37° C. during 10 minutes and subsequently chromogen-comprising LAL was added. The time required for reaching an optical density of 0.2 at 405 nm was measured. The endotoxin activity was calculated in comparison to a reference curve obtained for LPS standards.
# The endotoxicity of the disaccharides E, F and G was determined using the chromogenic LAL test (see infra). However, instead of using 1 mg/ml bovine serum albumin, 0.1 mg/ml has been used. The results (n=4 or 6) were obtained in two series of experiments and are shown hereafter.
# Solubility in water = type: physicochemical; conditions: sodium salt
# protease in LAL [2] = experiment: Endotoxicity, chromogenic LAL test; type: biochemical, Limulus polyphemus; conditions: ng LPS per ng product, n = 1-10
# Description: (§3) The endotoxicity and the biological activity of disaccharide A (example 1) and of disaccharide B (example 2) were determined and compared to that of lipopolysaccharide originating from Escherichia coli O111:B4 (Sigma, Product No. L3024), lipid A (Sigma, Product No. L5399; used as a starting material in example 4), and 3-O-deacylated lipid A originating from lipid A of Escherichia coli F583 (prepared as in the comparative example), but without purification by HPLC.
# (§4) The endotoxicity was determined in the Limulus amoebocyte lysate (LAL) test. This test is based on the observation that endotoxins induce coagulation of the hemolymph of Limulus polyphemus.
# as §1, §2
# (§5) The results are expressed in table 3 as: ng LPS per ng product.
# [3] = system: Limulus amoebocyte lysate (LAL); experiment: Endotoxicity, LAL gelification test; type: biochemical, Limulus polyphemus; conditions: ng LPS per ng product, n = 2-12
# Description: as §3, §4
# (§6) In the gelification test serial dilutions of the compound to be tested were mixed with LAL 1:1, (v/v) (Haemachem Inc., sensitivity LAL 0.06 endotoxin units/ml), and the mixture was incubated for one hour at 37° C. Then gel formation was monitored by measuring the optical density at 405 nm. The last dilution which formed a gel was determined by inverting the reaction microplate. The endotoxin activity in the samples was determined by comparison with dilutions of a lipopolysaccharide standard (1 endotoxin unit=0.1 ng LPS).
# as §5
# [4] = system: Limulus amoebocyte lysate (LAL); experiment: Endotoxicity in the limulus amoebocyte lysate (LAL) test (gelification and chromogenic); type: biochemical, Limulus polyphemus
# Description: as §3, §4, §6
# The endotoxicity was also measured in the chromogenic test, in which the activation of a protease in LAL by LPS was measured using a chromogen (Ac-Ile-Glu-Ala-Arg-pNA; Bio Whittaker Kit No. 50-650U). […]
# [5] = system: macrophages of C57BL/6 mice; experiment: Nitric oxide (NO) production in supernatants of macrophages; type: cell-based
# Description: Bone marrow was collected from hip, femur and tibia of six week old male C57BL/6 mice.
# After 7 days the mature macrophages were collected and resuspended in Dulbecco modified medium comprising 5% foetal calf serum to a concentration of 7×10^6 cells per ml. This cell suspension was mixed 1:1, (v/v) with samples diluted in the same medium and used in the biological tests performed in microplates with 70,000 cells/well (incubation at 37° C. for 22 hours, 100% humidity and 8% CO2).
# Nitric oxide (NO) is produced by macrophages in response to bacterial infection and in particular LPS. NO seems to have cytostatic and cytotoxic properties. NO is extremely reactive and rapidly converted by oxidation into nitrite and nitrate.
# The nitrite formation was determined using the Griess test (addition of 1:1, (v/v) N-(1-naphthyl)ethylene diamine hydrochloride [1 g/l in water] and p-aminobenzenesulphonamide [10 g/l in 5% H3 PO4 ]). The nitrite concentration in supernatants of activated macrophages was calculated in comparison to NaNO2 standards.
# [6] = system: murine peritoneal macrophages; experiment: Stimulation of nitrite production in murine peritoneal macrophages; type: cell-based; conditions: quantity determined by HPLC absorption vs disaccharide A
# Description: The biological activity of the fractions was tested by the stimulation of nitrite production in murine peritoneal macrophages as described hereinbefore.
# The quantity of each analogue in the stock solution was determined from the absorption on HPLC with reference to that of disaccharide A. The fractions show activities of the same order as disaccharide A (FIG. 8). […] The position of the acyloxyacyl, 2 versus 2', has only a minor influence on the activity.
# In order to eliminate the possibility that activity was due to contamination of the samples by other substances such as LPS, disaccharides E, F, G and H were repurified on reversed-phase HPLC and the regions of the HPLC baseline just before and just after the peak were also collected and treated in the same way as the fractions containing the peaks of material. The activity of the peak fractions and the baseline fractions was tested. […] The stimulation of nitrite production is thus specifically associated with the lipid A analogues.
compound,measurement,setting,value
"CCCCCCCCCC[C@H](O)C(=O)O[C@H](CCCCCCCCC)CC(=O)N[C@H]1[C@@H](OP(=O)(O)O)O[C@H](CO[C@@H]2O[C@H](CO)[C@@H](OP(=O)(O)O)[C@H](O)[C@H]2NC(=O)C[C@H](O)CCCCCCCCC)[C@@H](O)[C@@H]1O [disaccharide F, 2-Deoxy-6-O-[2-deoxy-2-[(R)-3-hydroxydodecanoylamino]-4-O-phosphono-β-D-glucopyranosyl]-2-[(R)-3-[(S)-2-hydroxydodecanoyloxy]-dodecanoylamino]-α-D-glucopyranosyl dihydrogenphosphate]",Endotoxic activity in LAL,protease in LAL [1],0.000025 ± 0.000026 mg/mg
CCCCCCCCCCCC(=O)O[C@H](CCCCCCCCCCC)CC(=O)N[C@H]1[C@H](OC[C@H]2O[C@H](OP(=O)(O)O)[C@H](NC(=O)C[C@H](O)CCCCCCCCCCC)[C@@H](O)[C@@H]2O)O[C@H](CO)[C@@H](OP(=O)(O)O)[C@@H]1O [sodium salt],"Solubility in water, in words",Solubility in water,freely soluble in water
same,solubility,Solubility in water,≥ 100 mg/mL
"CCCCCCCCCCCCCC(=O)O[C@H](CCCCCCCCCCC)CC(=O)N[C@H]1[C@H](OC[C@H]2O[C@H](OP(=O)(O)O)[C@H](NC(=O)C[C@H](O)CCCCCCCCCCC)[C@@H](O)[C@@H]2O)O[C@H](CO)[C@@H](OP(=O)(O)O)[C@@H]1O [disaccharide B, 2-Deoxy-6-O-[2-deoxy-2-[(R)-3-tetradecanoyloxytetradecanoylamino]-4-O-phosphono-β-D-glucopyranosyl]-2-[(R)-3-hydroxytetradecanoylamino]-α-D-glucopyranosyl dihydrogenphosphate]","Endotoxic activity in LAL, chromogen",protease in LAL [2],0.0008 ng/ng
same,"Endotoxic activity in LAL, gelification",[3],0.004 ± 0.002 ng/ng
same,"Endotoxicity in LAL, in words",[4],lowest endotoxicity
same,EC50,"[5]; Mus musculus, Macrophage, product concentration corresponding to 50% activity, 22 hours, 37° C.",0.05 µg/mL
same,minimal effective concentration,"[5]; Mus musculus, Macrophage, product concentration corresponding to induced NO activity, 22 hours, 37° C., read-out: NO production: Minimum activity (product concentration)",0.0005 µg/mL
same,NO activity at 50% in nmol of NO2- /ml,[5]; extrapolated from the series dilution curve,5 nmol of NO2- /ml
same,"NO production, in words",[5]; macrophages of C57BL/6 mice,induce NO production of the same order; also recorded: as strongly as lipid A and 3-O-deacylated lipid A
same,NO production: Maximum activity (product concentration),"[5]; product concentration corresponding to induced NO activity, 22 hours, 37° C.",16 µg/mL
"CCCCCCCCCCCC(=O)O[C@H](CCCCCCCCC)CC(=O)N[C@H]1[C@H](OC[C@H]2O[C@H](OP(=O)(O)O)[C@H](NC(=O)C[C@@H](CCCCCCCCC)OC(=O)[C@@H](O)CCCCCCCCCC)[C@@H](O)[C@@H]2O)O[C@H](CO)[C@@H](OP(=O)(O)O)[C@@H]1O [disaccharide H, 2-Deoxy-6-O-[2-deoxy-2-[(R)-3-dodecanoyloxydodecanoylamino]-4-O-phosphono-β-D-glucopyranosyl]-2-[(R)-3-[(S)-2-hydroxydodecanoyloxy]-dodecanoylamino]-α-D-glucopyranosyl dihydrogenphosphate]","Stimulation of nitrite production, in words",[6],most active
"CCCCCCCCCCCC(=O)O[C@H](CCCCCCCCC)CC(=O)N[C@H]1[C@H](OC[C@H]2O[C@H](OP(=O)(O)O)[C@H](NC(=O)C[C@H](O)CCCCCCCCC)[C@@H](O)[C@@H]2O)O[C@H](CO)[C@@H](OP(=O)(O)O)[C@@H]1O [disaccharide G, 2-Deoxy-6-O-[2-deoxy-2-[(R)-3-dodecanoyloxydodecanoylamino]-4-O-phosphono-β-D-glucopyranosyl]-2-[(R)-3-hydroxydodecanoylamino]-α-D-glucopyranosyl dihydrogenphosphate]",Endotoxic activity in LAL,protease in LAL [1],0.00006 ± 0.00003 mg/mg
"CCCCCCCCCC[C@H](O)C(=O)O[C@H](CCCCCCCCC)CC(=O)N[C@H]1[C@H](OC[C@H]2O[C@H](OP(=O)(O)O)[C@H](NC(=O)C[C@H](O)CCCCCCCCC)[C@@H](O)[C@@H]2O)O[C@H](CO)[C@@H](OP(=O)(O)O)[C@@H]1O [disaccharide E, 2-Deoxy-6-O-[2-deoxy-2-[(R)-3-[(S)-2-hydroxydodecanoyloxy]-dodecanoylamino]-4-O-phosphono-β-D-glucopyranosyl]-2-[(R)-3-hydroxydodecanoylamino]-α-D-glucopyranosyl dihydrogenphosphate]",Endotoxic activity in LAL,protease in LAL [1],0.000005 ± 0.000002 mg/mg
